Three compounds from patent US5273991A, “Imidazole-containing compositions and methods of use thereof analogs of distamycin” (Research Corporation Technologies, Inc., priority 1992, dated 1993) can be followed below.

For assay [1], the system named is CCRF-DEM. Nature of the assay: NCI cytotoxicity screen (SRB). Type of assay: cell-based, human. Particulars: 48 h; Leukemia CCRF-DEM.
Assay [2] has as its system UACC-62. Nature of the assay: NCI cytotoxicity screen (SRB). Format: cell-based, human.
Assay [3] has as its system HOP-18. Nature of the assay: NCI cytotoxicity screen (SRB). The note with it: subsequent test date. Format: cell-based, human.
In assay [4] the test system is 1GROV1. Nature of the assay: NCI cytotoxicity screen (SRB). Type of assay: cell-based, human.
Assay [5] concerns UACC-257. Nature of the assay: NCI cytotoxicity screen (SRB). Format: cell-based, human.
The subject of assay [6] is OVCAR-8. Nature of the assay: NCI cytotoxicity screen (SRB). Type of assay: cell-based, human.
Assay [7] relates to calf thymus DNA. Nature of the assay: circular dichroism (CD) titration, calf thymus DNA. Format: binding. Particulars: for isobestic point: calf thymus DNA; for binding site size: from saturation point r'~0.25; for saturation point r': moles of drug to moles of DNA base pairs. Here is the method:
The DNA binding properties of the present compounds were assessed by circular dichroism (CD) titration experiments. Methods for CD titration can be found, for example, in Zimmer et al. (1986) Prog. Biophys. Molec. Biol 47, 31. The conformation of DNA can be readily determined by CD experiments, and for B-DNA, characteristic positive and negative Cotton effects are observed at 260 and 245 nm, respectively.
The interaction of Compounds 6-10 to a number of DNAs [calf thymus, poly(dA dT) and poly(dG dC)] were analyzed by CD titration studies. All the CD titration experiments were performed using identical procedures, concentrations of DNA, and increments of drug:DNA ratios (or `r`, i.e. moles of drug to moles of DNA base pairs). Therefore, the differences observed in the CD spectra for the titration of each of the compounds to the polydeoxynucleotides may be directly compared to reflect their DNA binding properties.
All experiments were performed with a continuous flow of nitrogen purging the polarimeter. A 1 mm path length jacketed cell was used and all experiments were done at room temperature. Initially, DNA [0.02 μ moles (base pairs), 130 μL] was placed in the cell and the spectrum of the DNA alone was collected. Aliquots of drug were added and the spectra collected. The drug solutions were 1 mM and amounts of the drug added correspond to a drug to base pair ratio of 0.05, 0.10, 0.15, 0.20, 0.25, 0.30, 0.40, 0.50, 0.60, 0.80, 1.00. The scan parameters were set and standard for all experiments. The spectra were collected from 400 nm to 200 nm. The sensitivity was set at 1 mdeg and the scan speed was set at 20 nm per minute. Three scans were accumulated and automatically averaged by the computer. The λmax and ellipticity (mdeg) for each spectrum were collected from the raw scans and the final plots were smoothed by the noise reduction program on the computer. […] The induced CD band is presumably due to the uv absorption π to π^* transition of the drug in the drug:DNA complex. […] Therefore interaction of these drugs with DNA causes only minor conformational changes in the double helix.
On the technique in general: Circular dichroism is widely used to follow secondary structure.

As a reminder, the IC50 is the concentration that gives 50% inhibition. Higher therefore signals lower potency. In assay [1], `CN(C)CCNC(=O)c1nc(NC(=O)c2nc(NC(=O)c3nc(NC(=O)CCCc4ccc(N(CCCl)CCCl)cc4)cn3C)cn2C)cn1C` [Compound 10, N-(N',N'-dimethylaminoethyl)-1-methyl-4-{1-methyl-4-[4-(4,4-bis(2-chloroethyl)aminophenyl-1-butanamido)-1-methylimidazole-2-carboxamido]imidazole-2-carboxamido}imidazole-2-carboxamide] returned a half-maximal inhibitory concentration (IC50) of 9.67 µM.
With `CN(C)CCNC(=O)c1nc(NC(=O)c2nc(NC(=O)c3ccc(N(CCCl)CCCl)cc3)cn2C)cn1C` [Compound 6, N-(N',N'-dimethylaminoethyl)-1-methyl-4-{4-[4,4-bis(2-chloroethyl)aminobenzamido]-1-methylimidazole-2-carboxamido}imidazole-2-carboxamide], the IC50 in assay [2] (48 h, Melanoma UACC-62) was determined as 7.61 µM; in assay [2] (UACC-62, subsequent test date), 59.7 µM; in assay [3] it was 10.2 µM; in assay [4] (1GROV1, subsequent test date), 59.6 µM; in assay [4] (48 h, Ovarian Cancer 1GROV1), 50 µM; in assay [5] (48 h, Melanoma UACC-257), 7.03 µM. Besides, the IC50 in assay [5] (UACC-257, subsequent test date) stood at 57.6 µM; in assay [6] (48 h, Ovarian Cancer OVCAR-8), 45.3 µM; in assay [6] (OVCAR-8, subsequent test date) it was 20.8 µM. In addition, the “negative CD band, ellipticity” value in assay [7] (310 nm, r'=0.2, low drug concentration) is given as 0.2 mdeg; in assay [7] (315 nm, r'>0.4, higher drug concentrations), ~ 3 mdeg. In addition, the “weak positive CD band, ellipticity” value in assay [7] (340 nm, r'=0.2, low drug concentration) was 0.8 mdeg. The compound further returned an isobestic point in assay [7] of 320 nm. Also, in assay [7], the binding site size result is listed as “about four”. The “saturation point r'” value in assay [7] is on record as ~ 0.25. In addition, the “positive CD band at 340 nm, in words” value in assay [7] (r'>0.4, higher drug concentrations) is listed as “disappeared”.
For the compound `CN(C)CCNC(=O)c1nc(NC(=O)c2nc(NC(=O)c3nc(NC(=O)c4ccc(N(CCCl)CCCl)cc4)cn3C)cn2C)cn1C` [Compound 7, N-(N',N'-dimethylaminoethyl)-1-methyl-4-{1-methyl-4-[4-(4,4-bis-(2-chloroethyl)aminobenzamido)-1-methylimidazole-2-carboxamido]imidazole-2-carboxamido}imidazole-2-carboxamide], the “weak negative CD band, ellipticity” value in assay [7] (335 nm, r'=0.2) turned out to be 0.5 mdeg. Besides, in assay [7], the isobestic point was 300 nm, the binding site size result is on record as “four” and the “saturation point r'” value is on record as ~ 0.25.
